Values quoted from earlier work, collected in patent publication US7442701B2, “Amino-heterocycles as VR-1 antagonists for treating pain” (Merck Sharp & Dohme Ltd., priority 2002, dated 2008).

Molecular target: VR1 (Rattus norvegicus, UniProt O35433)
Conditions: Wahl et al., Mol. Pharmacol., 59:9, 2001

Sequence of VR1 (O35433 whole entry): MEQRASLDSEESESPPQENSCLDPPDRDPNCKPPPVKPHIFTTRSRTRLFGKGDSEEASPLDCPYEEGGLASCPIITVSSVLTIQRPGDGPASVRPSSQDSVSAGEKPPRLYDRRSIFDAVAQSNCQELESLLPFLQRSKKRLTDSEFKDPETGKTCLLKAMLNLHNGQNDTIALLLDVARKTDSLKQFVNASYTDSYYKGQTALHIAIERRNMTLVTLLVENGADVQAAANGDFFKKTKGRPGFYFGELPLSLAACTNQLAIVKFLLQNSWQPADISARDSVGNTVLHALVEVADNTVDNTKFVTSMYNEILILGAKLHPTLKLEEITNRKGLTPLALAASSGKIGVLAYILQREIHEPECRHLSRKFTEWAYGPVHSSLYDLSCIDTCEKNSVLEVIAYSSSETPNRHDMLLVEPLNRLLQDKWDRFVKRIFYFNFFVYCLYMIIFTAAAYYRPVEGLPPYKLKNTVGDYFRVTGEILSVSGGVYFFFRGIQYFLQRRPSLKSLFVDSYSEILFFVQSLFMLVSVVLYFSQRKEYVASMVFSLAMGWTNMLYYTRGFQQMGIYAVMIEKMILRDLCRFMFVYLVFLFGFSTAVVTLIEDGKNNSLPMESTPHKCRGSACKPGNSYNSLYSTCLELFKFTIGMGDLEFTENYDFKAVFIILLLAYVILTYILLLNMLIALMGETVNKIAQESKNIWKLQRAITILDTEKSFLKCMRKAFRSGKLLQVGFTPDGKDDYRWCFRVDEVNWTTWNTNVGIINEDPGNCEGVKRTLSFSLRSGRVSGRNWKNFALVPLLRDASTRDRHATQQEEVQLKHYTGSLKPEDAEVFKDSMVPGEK

Compound: C=C(C)[C@]12C[C@@H](C)[C@@]34O[C@](Cc5ccccc5)(O[C@@H]1[C@@H]3C=C(COC(=O)Cc1cc(I)c(O)c(OC)c1)C[C@]1(O)C(=O)C(C)=C[C@@H]41)O2 [Iodo-resiniferatoxin]
- antagonist of VR1: nanomolar antagonist
